The record followed here is patent US20060258635A1, “Use of a porphyrin compound for the treatment of skin fungi” (PHOTOBIOCHEM N.V., priority 2003, published 2006).

Series [1] concerns Trichophyton rubrum. The series can be described thus: Photodynamic treatment of Trichophyton rubrum suspension culture (white light illumination, growth on MEA quantified by counting inoculates). It counts as cell-based. Particulars: for photodynamic efficacy below a concentration of 3 μg/ml: below 3 μg/ml; for photodynamic efficacy below a concentration of 3 μg/ml / photodynamic efficacy above a concentration of 3 μg/ml: FIG. 1A; for result of photodynamic treatment of Trichophyton rubrum in suspension culture: 30 min incubation at 28° C., white light illumination, growth monitored during one week; for photodynamic efficacy above a concentration of 3 μg/ml: above 3 μg/ml; for concentration at which a true fungicidal effect was detected: after photodynamic treatment, FIG. 1B; for survival of the fungus after photodynamic treatment: after 7 days, over the whole concentration range used, control without photosensitizer is 100%. The procedure: Materials The fungus Trichophyton rubrum was purchased from the Centraalbureau voor Schimmelcultures (CBS), Baarn, The Netherlands. Cultures were grown on Malt Extract Agar (MEA, Oxoid, Hampshire England). Suspension cultures were made in Dulbecco's Modified Eagle Medium (DMEM, GibcoBRL, UK) with 2.5 % Fetal Calf Serum (FCS, GibcoBRL, UK).
Solid cultures were maintained at 28° C., the suspension cultures at room temperature. Hematoporphyrin (HP) was purchased from Porphyrin Products Inc. (Utah, USA), 5,10,15-tris(4-methylpyridinium)-20-phenyl-[21H, 23H]-porphyrine trichloride (Sylsens B), deuteroporphyrin (DP) and deuteroporphyrin monomethylester (DP mme) were synthesized and kindly provided by the Department of Bio-Organic Photochemistry, Leiden University, the Netherlands (purity, checked with NMR was more than 99.5%). All the phthalocyanines were purchased from Porphyrin Products. Inc. (Utah, USA)) and Photofrin was purchased from Lederle Parenterals Inc. (Carolina, USA). Polyethylene-glycol was obtained from Genfarma B.V. (Maarssen, the Netherlands), while all other chemicals were purchased from J.T.Baker (Deventer, The Netherlands).
The following solvents were used: • 50 mM sodium phosphate buffer pH 7.4 for Sylsens B, HP, Photofrin, ZnPc and AlPcS4; • polyethyleneglycol:ethanol:water (3:2:5) for DP and DP mme; and • dimethylformamide (DMF) for PcS4.
Stock solutions of the photosensitizers of 2.5 mg/ml solvent were stored at […] for no longer than one week.
Photodynamic treatment Illuminations were performed with a lamp from “MASSIVE” (no.74900/21), 1× max. 500W-230 V-R7s, IP 44. To avoid heating of the samples to be illuminated, the white light produced by the lamp first passes a 2 cm thick water layer before reaching the samples. The light intensity was measured with a IL1400A photometer equipped with a SEL033/F/U detector (International Light, Newburyport, Mass., USA). Before illumination, the fungal culture suspensions were incubated with the photosensitizer in test tubes for 30 minutes at a temperature of 28° C. After incubation, the suspension cultures were illuminated in the presence of the sensitizer in 3 cm diameter culture dishes (Greiner, Alphen aan den Rijn, The Netherlands). After illumination, the contents of the culture dishes were transferred to dishes of 9 cm diameter containing MEA, placed in the incubator at 28° C. and growth was monitored during one week and quantified by counting the number of inoculates present.

The test system of series [2] is Trichophyton rubrum. The format is cell-based.

Turning to `CC1=C(CCC(=O)O)c2cc3nc(cc4[nH]c(cc4C)cc4[nH]c(cc1n2)cc4C)C(C)=C3CCC(=O)O` [DP, deuteroporphyrin], in the series with Trichophyton rubrum [1], the “photodynamic efficacy below a concentration of 3 μg/ml” value is given as “poorest efficacy”. Besides, the dark toxicity result in the series on Trichophyton rubrum [2] was “expresses a dark toxicity at higher concentrations”.

As to `CC1=C(CCC(=O)O)c2cc3[nH]c(cc4nc(cc5[nH]c(cc1n2)c(C)c5C(C)O)C(C)=C4C(C)O)c(C)c3CCC(=O)O` (stereo not drawn) [HP, Hematoporphyrin], the dark toxicity result in the series with Trichophyton rubrum [2] is listed as “no dark toxicity”.

`C[n+]1ccc(-c2c3nc(c(-c4cc[n+](C)cc4)c4ccc([nH]4)c(-c4cc[n+](C)cc4)c4nc(c(-c5ccccc5)c5ccc2[nH]5)C=C4)C=C3)cc1.[Cl-].[Cl-].[Cl-]` [Sylsens B, 5,10,15-tris(4-methylpyridinium)-20-phenyl-[21H, 23H]-porphyrine trichloride]: in the series on Trichophyton rubrum [1], the “result of photodynamic treatment of Trichophyton rubrum in suspension culture” value (from here on “result”) is listed as “completely killing the fungus in almost all experiments”, the “photodynamic efficacy above a concentration of 3 μg/ml” value was “analogous to the effect caused by the other porphyrins”, the “concentration at which a true fungicidal effect was detected” value is 3 µg/mL and the “photodynamic efficacy below a concentration of 3 μg/ml” value is on record as “better photodynamic efficacy”. Also, in the series with Trichophyton rubrum [1] (comparison of porphyrin derivatives), the “effectiveness among the porphyrin derivatives” value is recorded as “by far the most effective”. Moreover, the dark toxicity result in the series with Trichophyton rubrum [2] is “no dark toxicity”.

Consider `[Zn+2].c1ccc2c(c1)-c1nc-2nc2[n-]c(nc3nc([n-]c4nc(n1)-c1ccccc1-4)-c1ccccc1-3)c1ccccc21` [ZnPc], for which the “survival of the fungus after photodynamic treatment” value with Trichophyton rubrum [1] was 100%.

As to Photofrin, in the series with Trichophyton rubrum [1], the “result” value is reported as “merely a delay of growth in the first days” and the “survival of the fungus after photodynamic treatment” value turned out to be 100%. Besides, in the series with Trichophyton rubrum [2], the “concentration at which dark toxicity is displayed” value is not below 90 µg/mL.

For the compound “deuteroporphyrin monomethylester [DP mme]”, in the series with Trichophyton rubrum [1], the “result” value is “completely killing the fungus in almost all experiments”, the “photodynamic efficacy above a concentration of 3 μg/ml” value is “analogous to the effect caused by the other porphyrins”, the “concentration at which a true fungicidal effect was detected” value was 3 µg/mL and the “photodynamic efficacy below a concentration of 3 μg/ml” value is on record as “the same as detected with HP”. Also, in the series with Trichophyton rubrum [2], the dark toxicity result is recorded as “expresses a dark toxicity at higher concentrations”.
